Tests used:
FS neurons = assay: Current clamp recording of spiking in FS neurons; type: cell-based, rat
From the text: (§1) Tissue preparation. […] Hippocampal interneurons and GP were identified as CaMKII negative, GAD67 and parvalbumin positive neurons by single cell RT-PCR detection of corresponding mRNAs following physiology experiments (see below).
Electrophysiology. Whole-cell recordings used standard techniques^27,28. The internal solution consisted of (in mM): 30-90 K2SO4, 0-60 N-methyl-D-glucamine, 2 MgCl2, 40 HEPES, 5 EGTA, 12 phosphocreatine, 2 Na2ATP, 0.2 Na3GTP, and 0.1 leupeptin, pH 7.2 with H2SO4 (osmolarity 260-270 mOsm/l). The external solution consisted of (in mM): 140 Na-isethionate, 2 KCl, 4 MgCl2, 10 HEPES, 12 glucose and 0.001 TTX, pH 7.35 with NaOH (osmolarity 295-305 mOsm/l). The internal solution for current clamp recordings consisted of (in mM) 110 potassium methylsulphate, 2 MgCl2, 40 HEPES, 5 EGTA, 12 phosphocreatine, 2 Na2ATP, 0.2 Na3GTP, and 0.1 leupeptin, pH 7.2 with H2SO4 (osmolarity 260-270 mOsm/l). In the case of current clamp recordings, TTX was omitted from external solution. For the recordings in the presence of Ca^+2 ions EGTA was omitted from internal solution and 4 mM of MgCl2 was substituted by 2 mM of CaCl2 and 2 mM of MgCl2. All drugs were obtained from Sigma (St. Louis, […]) except BDS-I that was obtained from Alomone Labs (Jerusalem, Israel). Solutions were applied by gravity fed sewer pipe system. Recordings were obtained with Axon Instruments 200 patch-clamp amplifier and controlled and monitored with a PC running pClamp software (version 7.0) (Axon Instruments Inc., Union City, Calif.). […] After seal rupture, series resistance (2-10 MΩ) was compensated (75-90%) and periodically monitored. […] Activation data were fit with a Boltzmann equation of the form: 1/(1+exp ((Vh−V)/Vc), V stands for membrane potential. In the case of Kv3.4a current, an estimate of peak current was obtained by single exponential fit of decay phase extrapolated to the start of test pulse. In all other instances the voltage dependence of the currents was obtained from the amplitude of tail currents measured following 200 msec long voltage steps. […]

[1] = system: Na+ currents in FS neurons; assay: Na+ currents in FS neurons; type: cell-based, rat; conditions: n=3
From the text: as §1
Electrophysiology. Whole-cell recordings used standard techniques^27,28. The internal solution consisted of (in mM): 30-90 K2SO4, 0-60 N-methyl-D-glucamine, 2 MgCl2, 40 HEPES, 5 EGTA, 12 phosphocreatine, 2 Na2ATP, 0.2 Na3GTP, and 0.1 leupeptin, pH 7.2 with H2SO4 (osmolarity 260-270 mOsm/l). The external solution consisted of (in mM): 140 Na-isethionate, 2 KCl, 4 MgCl2, 10 HEPES, 12 glucose and 0.001 TTX, pH 7.35 with NaOH (osmolarity 295-305 mOsm/l). The internal solution for current clamp recordings consisted of (in mM) 110 potassium methylsulphate, 2 MgCl2, 40 HEPES, 5 EGTA, 12 phosphocreatine, 2 Na2ATP, 0.2 Na3GTP, and 0.1 leupeptin, pH 7.2 with H2SO4 (osmolarity 260-270 mOsm/l). In the case of current clamp recordings, TTX was omitted from external solution. […] Recordings were obtained with Axon Instruments 200 patch-clamp amplifier and controlled and monitored with a PC running pClamp software (version 7.0) (Axon Instruments Inc., Union City, Calif.). […] After seal rupture, series resistance (2-10 MΩ) was compensated (75-90%) and periodically monitored. […]

Kv3.4 channel = target: T1, Kv3.4 channel (Rattus norvegicus, UniProt Q63734); conditions: COS-transfected cells, reversible; read-out: IC50, inhibition of Kv3.4 current; cited from earlier work
T1 construct: host or cells: COS cells
T1 sequence (Q63734 1-625): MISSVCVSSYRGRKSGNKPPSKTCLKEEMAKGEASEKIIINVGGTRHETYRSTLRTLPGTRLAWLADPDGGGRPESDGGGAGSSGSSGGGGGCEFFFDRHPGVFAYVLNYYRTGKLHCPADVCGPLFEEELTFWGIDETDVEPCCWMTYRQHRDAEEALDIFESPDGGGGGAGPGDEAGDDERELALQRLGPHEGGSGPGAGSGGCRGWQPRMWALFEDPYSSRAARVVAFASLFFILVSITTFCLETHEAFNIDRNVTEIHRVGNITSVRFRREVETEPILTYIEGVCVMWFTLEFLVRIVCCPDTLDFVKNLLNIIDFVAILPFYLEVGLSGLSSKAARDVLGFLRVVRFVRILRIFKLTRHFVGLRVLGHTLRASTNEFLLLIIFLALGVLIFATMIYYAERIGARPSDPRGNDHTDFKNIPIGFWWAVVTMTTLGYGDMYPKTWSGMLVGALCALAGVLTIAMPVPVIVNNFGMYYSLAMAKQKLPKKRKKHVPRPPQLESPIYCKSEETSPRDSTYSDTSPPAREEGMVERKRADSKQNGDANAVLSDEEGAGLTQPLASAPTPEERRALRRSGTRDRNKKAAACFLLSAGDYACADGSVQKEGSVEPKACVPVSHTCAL

[2] = system: K+ channels in the Kv1, Kv2, Kv3, and Kv4 subfamilies; conditions: cited from earlier work
[3] = system: Inward rectifier K+ channels; conditions: cited from earlier work
homomeric Kv3.4 channels = target: T2, homomeric Kv3.4 channels (Rattus norvegicus, UniProt Q63734); conditions: low micromolar concentrations; cited from earlier work
T2 sequence (Q63734 1-625): T1 sequence (Q63734 1-625)

Kv3.1 channel = target: T3, Kv3.1 channel (Rattus norvegicus, UniProt P25122); conditions: low micromolar concentrations; cited from earlier work
T3 sequence (P25122 1-585): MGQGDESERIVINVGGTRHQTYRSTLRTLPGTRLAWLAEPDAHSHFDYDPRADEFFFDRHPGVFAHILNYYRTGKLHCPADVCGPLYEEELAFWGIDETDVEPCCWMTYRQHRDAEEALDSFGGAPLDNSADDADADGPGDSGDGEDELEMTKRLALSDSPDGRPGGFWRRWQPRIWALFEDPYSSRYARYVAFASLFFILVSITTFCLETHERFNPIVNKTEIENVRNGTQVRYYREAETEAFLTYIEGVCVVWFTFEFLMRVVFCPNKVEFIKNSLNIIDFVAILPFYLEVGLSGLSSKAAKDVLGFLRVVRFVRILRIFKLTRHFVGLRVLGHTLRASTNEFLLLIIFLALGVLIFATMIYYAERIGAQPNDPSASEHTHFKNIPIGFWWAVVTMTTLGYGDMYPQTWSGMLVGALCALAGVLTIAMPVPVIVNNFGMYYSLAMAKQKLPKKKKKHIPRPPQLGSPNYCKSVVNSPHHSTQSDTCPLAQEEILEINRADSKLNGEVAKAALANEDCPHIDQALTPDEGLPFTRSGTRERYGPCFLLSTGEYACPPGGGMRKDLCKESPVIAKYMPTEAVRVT

BDS-I (AAPCFCSGKPGRGDLWILRGTCPGGYGYTSNCYKWPNICCYPH)
change in the rate of rise in the spike (FS neurons): no obvious change | increase of duration of spikes in FS neurons (FS neurons; BDS-I 2 μM, extracellular Ca2+ 2 mM, n=4): 53+13% | rate of repetitive spiking evoked by sustained current injection (FS neurons; with and without extracellular Ca2+): slowed | inactivation kinetics of Na+ currents in FS neurons [1]: didn't significantly alter | IC50 (Kv3.4 channel): 47 nM | block of other K+ channels in the Kv1, Kv2, Kv3, and Kv4 subfamilies [2]: failed to block | sensitivity of inward rectifier K+ channels [3]: insensitive | block of homomeric Kv3.4 channels (homomeric Kv3.4 channels): blocks | effects on Kv3.1 channel currents (Kv3.1 channel): only minor effects

— patent publication US7629323B2, “Manipulation of neuronal ion channels” (Northwestern University, priority 2003, dated 2009)
